# Literature values in patent publication US11603489B2, “Method for inhibiting water permeation in an extraction well of a hydrocarbon oil from an underground reservoir” (priority 2016, dated 2023).
# Like-named read-outs stand apart in the source and are kept apart here.
# Tests used:
# [1] = not given; remark: listed apart in the source
# [2] = temperature at which the initiator has a half-life of 10 hours
# [3] = distribution coefficient between water and 1-octanol
# [4] = temperature at which the initiator has a half-life of 10 hours, in benzene
SMILES,Log P octanol/water [3],T1/2(10 h) in water [2] [°C],other results
"CC(C)(C#N)N=NC(N)=O [Composition V-30, 1-[(1-cyano-1-methylethyl)azo]formamide]",> 0,–,"T1/2(10 h) in benzene [1, 4]: 104 °C"
O=C(OOC(=O)c1ccccc1)c1ccccc1 [benzoyl peroxide],> 0,–,–
"CC(C)(N=NC(C)(C)C1=NCCN1)C1=NCCN1.O.O.O=S(=O)(O)O.O=S(=O)(O)O [VA-046B, 2,2′-Azobis[2-(2-imidazolin-2-yl)propane]disulfate dihydrate]",–,47,–
"CC(C)(N=NC(C)(C)C(=N)N)C(=N)N.Cl.Cl [2,2′-Azobis(2-methylpropionamidine) dihydrochloride]",–,–,T1/2(10 h) in water ([2]; dihydrochloride): 55 °C
O.O.O=S(=O)([O-])CO.[Na+] [hydroxymethanesulfonic acid monosodium salt dihydrate],< 0,60,–
"CCC(C)(N=NC(C)(CC)C(=N)N1CCCC1)C(=N)N1CCCC1.Cl.Cl (stereo not drawn) [VA-067, 2,2′-Azobis(1-imino-1-pyrrolidine-2-ethylpropane)-dihydrochloride]",–,67,–
"CC(C#N)(CCC(=O)O)N=NC(C)(C#N)CCC(=O)O (stereo not drawn) [4,4′-Azobis(4-cyanovaleric acid)]",–,50,–
CC(C)(C)OOC(=O)c1ccccc1 [tert-butyl peroxybenzoate],> 0,–,"T1/2(10 h) in benzene [1, 4]: 73 °C"
O=S(=O)([O-])OOS(=O)(=O)[O-].[K+].[K+] [potassium persulfate],–,65,–
CC(C)(OOC(C)(C)c1ccccc1)c1ccccc1 [dicumyl peroxide],> 0,–,"T1/2(10 h) in benzene [1, 4]: 75 °C"
"CC(C)(N=NC(C)(C)C(=O)NC(CO)(CO)CO)C(=O)NC(CO)(CO)CO [VA080, 2,2′-Azobis{2-methyl-N-[1,1-bis(hydroxymethyl)-2-hydroxyethyl]propionamide}]",–,80,Log P octanol/water: < 0
CCCCCCCCCCCC(=O)OOC(=O)CCCCCCCCCCC [lauroyl peroxide],> 0,–,"T1/2(10 h) in benzene [1, 4]: 75 °C"
"CC(C)(N=NC(C)(C)C1=NCCN1CCO)C1=NCCN1CCO.Cl.Cl [VA-060, 2,2′-Azobis{2-[1-(2-hydroxyethyl)-2-imidazolinyl]propane}-dihydrochloride]",< 0,60,–
"CC(C)(N=NC(C)(C)C1=NCCN1)C1=NCCN1.Cl.Cl [VA-044, 2,2′-Azobis[2-(2-imidazolin-2-yl)propane]dihydrochloride]",–,44,–
"CC(C)(N=NC(C)(C)C1=NCCN1)C1=NCCN1 [VA-061, 2,2′-Azobis[2-(2-imidazolin-2-yl)propane]]",–,61,–
"CCC(C)(C#N)N=NC(C)(C#N)CC (stereo not drawn) [Composition V-59, 2,2′-azobis(2-methylbutyronitrile)]",> 0,–,–
"CC(C)(N=NC(C)(C)C(=O)NC1CCCCC1)C(=O)NC1CCCCC1 [VAm-111, 2,2′-azobis(N-cyclohexyl-2-methylpropionamide)]",–,–,Log P octanol/water: > 0; T1/2(10 h) in benzene [1]: 111 °C
"CCCCNC(=O)C(C)(C)N=NC(C)(C)C(=O)NCCCC [VAm-110, 2,2′-azobis(N-butyl-2-methylpropionamide)]",–,–,Log P octanol/water: > 0; T1/2(10 h) in benzene [1]: 110 °C
N.N.O=S(=O)(O)OOS(=O)(=O)O [ammonium persulfate],–,65,–
"CC(C)(N=NC(C)(C)C(=O)NCCO)C(=O)NCCO [VA086, 2,2′-Azobis[2-methyl-N-(2-hydroxyethyl)propionamide]]",–,87,–
"C=CCNC(=O)C(C)(C)N=NC(C)(C)C(=O)NCC=C [VF-096, 2,2′-azobis[N-(2-propenyl)-2-methylpropionamide]]",–,–,Log P octanol/water: > 0; T1/2(10 h) in benzene [1]: 96 °C
CC(C)(C)OOC(C)(C)C [tert-butyl peroxide],> 0,–,"T1/2(10 h) in benzene [1, 4]: 70 °C"
"CC(C)(N=NC(C)(C)C(=N)NCCC(=O)O)C(=N)NCCC(=O)O.O.O.O.O [VA-057, 2,2′-Azobis[N-(2-carboxyethyl)-2-methylpropionamidine]tetrahydrate]",< 0,57,–
O=S(=O)([O-])OOS(=O)(=O)[O-].[Na+].[Na+] [sodium persulfate],–,65,–
